For this test, the system named is MV-4-11 cells. Put plainly: Gene expression microarray analysis (Affymetrix PrimeView) and GSEA. The class given is cell-based, human. Also noted: RFU PODN (11730768_x_at) / Fold change /veh PODN (11730768_x_at) / RFU LINC00158 (11744669_a_at) / Fold change /veh LINC00158 (11744669_a_at) / RFU DUSP10 (11751237_a_at) / Fold change /veh DUSP10 (11751237_a_at) / RFU ID3 (11757404_x_at) / Fold change /veh ID3 (11757404_x_at) / RFU PLEKHG5 (11737974_s_at) / Fold change /veh PLEKHG5 (11737974_s_at) / RFU LRRC4B (11730491_at) / Fold change /veh LRRC4B (11730491_at) / RFU GIMAP4 (11747438_a_at) / Fold change /veh GIMAP4 (11747438_a_at) / RFU KRT8 (11758183_x_at) / Fold change /veh KRT8 (11758183_x_at) / RFU CNN1 (11734310_a_at) / Fold change /veh CNN1 (11734310_a_at) / RFU VPS37D (11726825_at) / Fold change /veh VPS37D (11726825_at) / RFU C10orf10 (11716522_x_at) / Fold change /veh C10orf10 (11716522_x_at) / RFU KIR2DL2 /// KIR2DL4 /// KIR2DL5A /// KIR2DL5B /// KIR2DS1 /// KIR2DS2 /// KIR2DS3 /// KIR2DS4 /// KIR3DL3 /// KIR3DL3 /// KIR3DS1 (11738374_at) / Fold change /veh KIR2DL2 /// KIR2DL4 /// KIR2DL5A /// KIR2DL5B /// KIR2DS1 /// KIR2DS2 /// KIR2DS3 /// KIR2DS4 /// KIR3DL3 /// KIR3DL3 /// KIR3DS1 (11738374_at) / RFU C1QL1 (11718748_at) / Fold change /veh C1QL1 (11718748_at) / RFU TMPRSS4 (11747572_a_at) / Fold change /veh TMPRSS4 (11747572_a_at) / RFU HAMP (11756126_x_at) / Fold change /veh HAMP (11756126_x_at) / RFU RNFT2 (11725882_a_at) / Fold change /veh RNFT2 (11725882_a_at) / RFU NR4A2 (11747474_a_at) / Fold change /veh NR4A2 (11747474_a_at) / RFU ABCC12 (11746883_a_at) / Fold change /veh ABCC12 (11746883_a_at) / RFU TMEM136 (11760407_x_at) / Fold change /veh TMEM136 (11760407_x_at) / RFU CLDN22 /// WWC2 (11732394_at) / Fold change /veh CLDN22 /// WWC2 (11732394_at) / RFU HLA-DPB1 (11760878_x_at) / Fold change /veh HLA-DPB1 (11760878_x_at) / RFU SPINT1 (11716480_a_at) / Fold change /veh SPINT1 (11716480_a_at) / RFU GAP43 (11754022_s_at) / Fold change /veh GAP43 (11754022_s_at) / RFU A4GNT (11735810_at) / Fold change /veh A4GNT (11735810_at) / RFU PRB3 (11715151_x_at) / Fold change /veh PRB3 (11715151_x_at) / RFU TUBB4B (11761932_at) / Fold change /veh TUBB4B (11761932_at) / RFU CAPN14 (11732068_a_at) / Fold change /veh CAPN14 (11732068_a_at) / RFU TMCC2 (11721928_a_at) / Fold change /veh TMCC2 (11721928_a_at) / RFU IRGQ (11745062_a_at) / Fold change /veh IRGQ (11745062_a_at) / RFU FAM174B (11720279_a_at) / Fold change /veh FAM174B (11720279_a_at) / RFU TMPRSS4 (11748680_a_at) / Fold change /veh TMPRSS4 (11748680_a_at) / RFU FAM212B (11763350_a_at) / Fold change /veh FAM212B (11763350_a_at) / RFU PLEKHG5 (11743358_a_at) / Fold change /veh PLEKHG5 (11743358_a_at) / RFU ZSCAN30 (11745921_a_at) / Fold change /veh ZSCAN30 (11745921_a_at) / RFU CMKLR1 (11741424_a_at) / Fold change /veh CMKLR1 (11741424_a_at) / RFU LOC101060620 /// MAPK8IP1 (11723275_at) / Fold change /veh LOC101060620 /// MAPK8IP1 (11723275_at) / RFU SPTSSB (11747773_x_at) / Fold change /veh SPTSSB (11747773_x_at) / RFU PRSS12 (11739890_at) / Fold change /veh PRSS12 (11739890_at) / RFU BIN1 (11741810_x_at) / Fold change /veh BIN1 (11741810_x_at) / RFU WNT11 (11732464_a_at) / Fold change /veh WNT11 (11732464_a_at) / RFU C10orf10 (11716521_a_at) / Fold change /veh C10orf10 (11716521_a_at) / RFU C5orf56 (11738089_at) / Fold change /veh C5orf56 (11738089_at) / RFU CYB561 (11721691_x_at) / Fold change /veh CYB561 (11721691_x_at) / RFU ANKRD19P (11752326_a_at) / Fold change /veh ANKRD19P (11752326_a_at) / RFU OR2T12 /// OR2T33 /// OR2T8 (11738714_s_at) / Fold change /veh OR2T12 /// OR2T33 /// OR2T8 (11738714_s_at) / RFU VCAN (11748164_a_at) / Fold change /veh VCAN (11748164_a_at) / RFU JSRP1 (11732532_at) / Fold change /veh JSRP1 (11732532_at) / RFU KRTAP10-11 (11738290_x_at) / Fold change /veh KRTAP10-11 (11738290_x_at) / RFU MYO3A (11730013_a_at) / Fold change /veh MYO3A (11730013_a_at) / RFU EBF3 (11725865_a_at) / Fold change /veh EBF3 (11725865_a_at) / RFU CAMK2N1 (11719241_x_at) / Fold change /veh CAMK2N1 (11719241_x_at) / RFU C5orf56 (11738088_a_at) / Fold change /veh C5orf56 (11738088_a_at) / RFU OLFML3 (11715873_a_at) / Fold change /veh OLFML3 (11715873_a_at) / RFU LOC100653217 /// NTM (11731650_a_at) / Fold change /veh LOC100653217 /// NTM (11731650_a_at) / RFU MAPK11 (11762145_a_at) / Fold change /veh MAPK11 (11762145_a_at) / RFU FIZ1 (11724087_x_at) / Fold change /veh FIZ1 (11724087_x_at) / RFU OASL (11726364_x_at) / Fold change /veh OASL (11726364_x_at) / RFU SOX15 (11748057_x_at) / Fold change /veh SOX15 (11748057_x_at) / RFU CD79A (11719716_a_at) / Fold change /veh CD79A (11719716_a_at) / RFU HIST1H1D (11736915_at) / Fold change /veh HIST1H1D (11736915_at) / RFU CASKIN2 (11723855_a_at) / Fold change /veh CASKIN2 (11723855_a_at) / RFU LOC730098 (11760151_x_at) / Fold change /veh LOC730098 (11760151_x_at) / RFU OR4N2 (11742367_at) / Fold change /veh OR4N2 (11742367_at) / RFU PRRT2 (11749266_a_at) / Fold change /veh PRRT2 (11749266_a_at) / RFU SNX32 (11753110_a_at) / Fold change /veh SNX32 (11753110_a_at) / RFU CDHR5 (11726645_a_at) / Fold change /veh CDHR5 (11726645_a_at) / RFU RCAN1 (11760418_a_at) / Fold change /veh RCAN1 (11760418_a_at) / RFU FAM167A (11723789_a_at) / Fold change /veh FAM167A (11723789_a_at) / RFU FAM26E (11764081_at) / Fold change /veh FAM26E (11764081_at) / RFU ISYNA1 (11749810_s_at) / Fold change /veh ISYNA1 (11749810_s_at) / RFU ACY1 (11761880_at) / Fold change /veh ACY1 (11761880_at) / RFU 11764098_at / Fold change /veh 11764098_at / RFU SAMD14 (11745864_x_at) / Fold change /veh SAMD14 (11745864_x_at) / RFU NPB (11741838_a_at) / Fold change /veh NPB (11741838_a_at) / RFU TMPRSS6 (11731388_a_at) / Fold change /veh TMPRSS6 (11731388_a_at) / RFU KRTAP10-2 (11738614_at) / Fold change /veh KRTAP10-2 (11738614_at) / RFU ARHGAP8 /// PRR5-ARHGAP8 (11727945_x_at) / Fold change /veh ARHGAP8 /// PRR5-ARHGAP8 (11727945_x_at) / RFU KRTAP5-7 /// NADSYN1 (11734609_at) / Fold change /veh KRTAP5-7 /// NADSYN1 (11734609_at) / RFU RASL12 (11751679_a_at) / Fold change /veh RASL12 (11751679_a_at) / RFU CDKN2B (11736163_a_at) / Fold change /veh CDKN2B (11736163_a_at) / RFU PRF1 (11729649_at) / Fold change /veh PRF1 (11729649_at) / RFU, ZNF638 /// ZNF638-IT1 / Fold change vs veh, ZNF638 /// ZNF638-IT1 / RFU, PANK3 / Fold change vs veh, PANK3 / RFU, SH3YL1 / Fold change vs veh, SH3YL1 / RFU, ZEB2 / Fold change vs veh, ZEB2 / RFU, NRIP1 / Fold change vs veh, NRIP1 / RFU, PTTG1IP / Fold change vs veh, PTTG1IP / RFU, CAPN2 / Fold change vs veh, CAPN2 / RFU, MED14 / Fold change vs veh, MED14 / RFU, SNORA58 / Fold change vs veh, SNORA58 / RFU, C1orf63 / Fold change vs veh, C1orf63 / RFU, LRRFIP1 / Fold change vs veh, LRRFIP1 / RFU, NDUFAF7 / Fold change vs veh, NDUFAF7 / RFU, SLC12A2 / Fold change vs veh, SLC12A2 / RFU, IBTK / Fold change vs veh, IBTK / RFU, ESF1 / Fold change vs veh, ESF1 / Fold change vs veh, TMEM50B / RFU, TAOK1 / Fold change vs veh, TAOK1 / RFU, ACBD3 / Fold change vs veh, ACBD3 / RFU, TMA16 / Fold change vs veh, TMA16 / RFU, RWDD3 / Fold change vs veh, RWDD3 / RFU, BCAT1 / Fold change vs veh, BCAT1 / RFU, EDEM3 / Fold change vs veh, EDEM3 / RFU, TMEM33 / Fold change vs veh, TMEM33 / RFU, WDR75 / Fold change vs veh, WDR75 / RFU, AHCTF1 / Fold change vs veh, AHCTF1 / RFU, TFRC / Fold change vs veh, TFRC / RFU, ZDHHC17 / Fold change vs veh, ZDHHC17 / RFU, NOM1 / Fold change vs veh, NOM1 / RFU, ARL8B / Fold change vs veh, ARL8B / RFU, ZBTB11 / Fold change vs veh, ZBTB11 / RFU, TAMM41 / Fold change vs veh, TAMM41 / RFU, KIAA1704 /// LOC100996395 / Fold change vs veh, KIAA1704 /// LOC100996395 / RFU, ING1 / Fold change vs veh, ING1 / RFU, TRMT61B / Fold change vs veh, TRMT61B / RFU, FUBP3 / Fold change vs veh, FUBP3 / RFU, TP53 / Fold change vs veh, TP53 / RFU, TNKS2 / Fold change vs veh, TNKS2 / RFU, ZFP14 / Fold change vs veh, ZFP14 / RFU, ACTR2 / Fold change vs veh, ACTR2 / RFU, PPP3R1 / Fold change vs veh, PPP3R1 / RFU, PIK3R1 / Fold change vs veh, PIK3R1 / RFU, HNRNPA1 / Fold change vs veh, HNRNPA1 / RFU, RNF170 / Fold change vs veh, RNF170 / RFU, ZNF28 / Fold change vs veh, ZNF28 / RFU, RNGTT / Fold change vs veh, RNGTT / RFU, OGT / Fold change vs veh, OGT / RFU, BRD1 / Fold change vs veh, BRD1 / RFU, MARS / Fold change vs veh, MARS / RFU, ZNF655 / Fold change vs veh, ZNF655 / RFU, FAHD1 / Fold change vs veh, FAHD1 / RFU, BDP1 / Fold change vs veh, BDP1 / RFU, LRRCC1 / Fold change vs veh, LRRCC1 / RFU, ARID1A / Fold change vs veh, ARID1A / RFU, ZNF146 / Fold change vs veh, ZNF146 / RFU, ZNF330 / Fold change vs veh, ZNF330 / RFU, GPN3 / Fold change vs veh, GPN3 / RFU, C9orf123 / Fold change vs veh, C9orf123 / RFU, N4BP2L2 / Fold change vs veh, N4BP2L2 / RFU, ARFIP1 / Fold change vs veh, ARFIP1 / RFU, FAM179B / Fold change vs veh, FAM179B / RFU, BCL10 / Fold change vs veh, BCL10 / RFU, UHRF1BP1L / Fold change vs veh, UHRF1BP1L / RFU, BET1 / Fold change vs veh, BET1 / RFU, CNOT2 / Fold change vs veh, CNOT2 / RFU, ZNF268 / Fold change vs veh, ZNF268 / Fold change vs veh, ZNF507 / RFU, DGCR2 / Fold change vs veh, DGCR2 / RFU, WDSUB1 / Fold change vs veh, WDSUB1 / Fold change vs veh, HSP90B1 /// MIR3652 / RFU, ADSS / Fold change vs veh, ADSS / RFU, GK / Fold change vs veh, GK / RFU, ZNF148 / Fold change vs veh, ZNF148 / RFU, TAF9 / Fold change vs veh, TAF9 / RFU, SLC1A5 / Fold change vs veh, SLC1A5 / RFU, SLMO2 / Fold change vs veh, SLMO2 / RFU, ABCC4 / Fold change vs veh, ABCC4 / RFU, LOC101060439 /// RAP1B / Fold change vs veh, LOC101060439 /// RAP1B / RFU, RFX7 / Fold change vs veh, RFX7 / RFU, GTPBP10 / Fold change vs veh, GTPBP10 / RFU, CNEP1R1 / Fold change vs veh, CNEP1R1 / RFU, BIVM-ERCC5 /// ERCC5 / Fold change vs veh, BIVM-ERCC5 /// ERCC5 / RFU, ILF3 / Fold change vs veh, ILF3 / RFU 11762660_at / Fold change /veh 11762660_at / RFU VCAN (11757783_s_at) / Fold change /veh VCAN (11757783_s_at) / RFU DDX43 (11728927_at) / Fold change /veh DDX43 (11728927_at) / RFU KRT8 (11758188_x_at) / Fold change /veh KRT8 (11758188_x_at) / RFU NKD1 (11759106_at) / Fold change /veh NKD1 (11759106_at) / RFU SRD5A1 (11742802_a_at) / Fold change /veh SRD5A1 (11742802_a_at) / RFU TPSAB1 /// TPSB2 (11721975_s_at) / Fold change /veh TPSAB1 /// TPSB2 (11721975_s_at) / RFU GSTM3 (11746129_a_at) / Fold change /veh GSTM3 (11746129_a_at) / RFU IL23R (11737362_x_at) / Fold change /veh IL23R (11737362_x_at) / RFU TMEM51 (11727254_a_at) / Fold change /veh TMEM51 (11727254_a_at) / RFU PIWIL2 (11732686_x_at) / Fold change /veh PIWIL2 (11732686_x_at) / RFU ORM1 (11744905_x_at) / Fold change /veh ORM1 (11744905_x_at) / RFU CCDC152 (11743942_at) / Fold change /veh CCDC152 (11743942_at) / RFU ECM1 (11717891_a_at) / Fold change /veh ECM1 (11717891_a_at) / RFU IL23R (11748794_a_at) / Fold change /veh IL23R (11748794_a_at) / RFU TNFAIP8L3 (11732012_x_at) / Fold change /veh TNFAIP8L3 (11732012_x_at) / RFU MBOAT4 (11741988_at) / Fold change /veh MBOAT4 (11741988_at) / RFU 11764193_at / Fold change /veh 11764193_at / RFU TMEM53 (11763286_at) / Fold change /veh TMEM53 (11763286_at) / RFU MAGEB2 (11727129_at) / Fold change /veh MAGEB2 (11727129_at) / RFU TMEM200A (11744735_a_at) / Fold change /veh TMEM200A (11744735_a_at) / RFU CCDC152 (11751479_a_at) / Fold change /veh CCDC152 (11751479_a_at) / RFU FAM211A (11726209_a_at) / Fold change /veh FAM211A (11726209_a_at) / RFU RGS16 (11746705_a_at) / Fold change /veh RGS16 (11746705_a_at) / RFU VCAN (11755009_s_at) / Fold change /veh VCAN (11755009_s_at) / RFU RHOB (11743442_s_at) / Fold change /veh RHOB (11743442_s_at) / RFU RGS16 (11720943_a_at) / Fold change /veh RGS16 (11720943_a_at) / RFU RGS16 (11720944_at) / Fold change /veh RGS16 (11720944_at) / RFU, VPS4B / Fold change vs veh, VPS4B / RFU, CREB1 / Fold change vs veh, CREB1 / RFU, DNAJC13 / Fold change vs veh, DNAJC13 / RFU, GNAQ / Fold change vs veh, GNAQ / RFU, CDK5R1 / Fold change vs veh, CDK5R1 / RFU, ZRANB3 / Fold change vs veh, ZRANB3 / RFU, CUL4A / Fold change vs veh, CUL4A / RFU, CCNY / Fold change vs veh, CCNY / RFU, UFL1 / Fold change vs veh, UFL1 / RFU, COG3 / Fold change vs veh, COG3 / RFU, DIAPH2 / Fold change vs veh, DIAPH2 / RFU, SKA2 / Fold change vs veh, SKA2 / RFU, AFF3 / Fold change vs veh, AFF3 / RFU, LMF1 / Fold change vs veh, LMF1 / RFU, IPO11 / Fold change vs veh, IPO11 / RFU, DFFB / Fold change vs veh, DFFB / RFU, FOXP1 / Fold change vs veh, FOXP1 / RFU, CARD8 / Fold change vs veh, CARD8 / RFU, STRN3 / Fold change vs veh, STRN3 / RFU, ADK / Fold change vs veh, ADK / RFU, RASSF2 / Fold change vs veh, RASSF2 / RFU, WIPF1 / Fold change vs veh, WIPF1 / RFU, LARP1B / Fold change vs veh, LARP1B / RFU, RASA1 / Fold change vs veh, RASA1 / RFU, RB1 / Fold change vs veh, RB1 / RFU, PPFIA1 / Fold change vs veh, PPFIA1 / RFU, MAT2A / Fold change vs veh, MAT2A / RFU, CCT5 / Fold change vs veh, CCT5 / RFU, WDR92 / Fold change vs veh, WDR92 / RFU, CUX1 / Fold change vs veh, CUX1 / RFU, TTC7A / Fold change vs veh, TTC7A / RFU, TMEM135 / Fold change vs veh, TMEM135 / RFU, DEPTOR / Fold change vs veh, DEPTOR / RFU, CPM / Fold change vs veh, CPM / RFU, DNAJB6 / Fold change vs veh, DNAJB6 / RFU, CACNA2D3 / Fold change vs veh, CACNA2D3 / RFU, DTX4 / Fold change vs veh, DTX4 / RFU, TFCP2 / Fold change vs veh, TFCP2 / RFU, GMCL1 /// GMCL1P1 / Fold change vs veh, GMCL1 /// GMCL1P1 / RFU, AEBP2 / Fold change vs veh, AEBP2 / RFU, SNHG1 /// SNORD22 /// SNORD25 /// SNORD26 /// SNORD27 /// SNORD28 /// SNORD29 /// SNORD31 / Fold change vs veh, SNHG1 /// SNORD22 /// SNORD25 /// SNORD26 /// SNORD27 /// SNORD28 /// SNORD29 /// SNORD31 / Fold change (Aza/veh), C12orf56 (ProbeSet 11735607_a_at) / Fold change (ACY-1035/veh), C12orf56 (ProbeSet 11735607_a_at) / Fold change (Aza/veh), FGFR1OP (ProbeSet 11751329_s_at) / Fold change (ACY-1035/veh), FGFR1OP (ProbeSet 11751329_s_at) / Fold change (Aza/veh), VPS36 (ProbeSet 11739960_a_at) / Fold change (ACY-1035/veh), VPS36 (ProbeSet 11739960_a_at) / RFU SYPL1 (11715823_x_at) / Fold change /veh SYPL1 (11715823_x_at) / RFU IGFBP7 (11715501_s_at) / Fold change /veh IGFBP7 (11715501_s_at) / RFU REEP3 (11722064_at) / Fold change /veh REEP3 (11722064_at) / RFU IGLL1 (11728026_x_at) / Fold change /veh IGLL1 (11728026_x_at): dose or concentration left out as unconfirmed. Conditions: ProbeSet 11734937_a_at; LIST B.

SMILES strings stand for the structures.

The source of these data is article PMC5218480 (PLoS ONE, 2017).

As for `Nc1ccc(-c2cccs2)cc1NC(=O)c1ccc2c(c1)cc(C1CC1)n2CCN1CCOCC1` [ACY-1035], the “RFU, CNOT2” value was found to be 798.97 RFU.
